# Key:
# Conditions in all cases: Compound concentration 1.0 uM
# [1] = target: Urotensin-2 receptor (Homo sapiens) (UniProt Q9UKP6); experiment: RLU of UTS2R at 1.0 µM in the […] PRESTO-Tango GPCRome screen
# [2] = target: Mas-related G-protein coupled receptor member X2 (Homo sapiens) (UniProt Q96LB1); experiment: RLU of MRGPRX2 at 1.0 µM in the […] PRESTO-Tango GPCRome screen
# [3] = target: Lutropin-choriogonadotropic hormone receptor (Homo sapiens) (UniProt P22888); experiment: RLU of LHCGR at 1.0 µM in the […] PRESTO-Tango GPCRome screen
# [4] = target: C5a anaphylatoxin chemotactic receptor 2 (Homo sapiens) (UniProt Q9P296); experiment: RLU of GPR77 at 1.0 µM in the […] PRESTO-Tango GPCRome screen
# [5] = target: Metabotropic glycine receptor (Homo sapiens) (UniProt Q5T848); experiment: RLU of GPR158 at 1.0 µM in the […] PRESTO-Tango GPCRome screen
# [6] = target: Neuropeptide Y receptor type 1 (Homo sapiens) (UniProt P25929); experiment: RLU of NPY1R at 1.0 µM in the […] PRESTO-Tango GPCRome screen
# [7] = target: Proteinase-activated receptor 4 (Homo sapiens) (UniProt Q96RI0); experiment: RLU of F2RL3 at 1.0 µM in the […] PRESTO-Tango GPCRome screen
# [8] = target: Neuropeptide Y receptor type 2 (Homo sapiens) (UniProt P49146); experiment: RLU of NPY2R at 1.0 µM in the […] PRESTO-Tango GPCRome screen
# [9] = target: Gastric inhibitory polypeptide receptor (Homo sapiens) (UniProt P48546); experiment: RLU of GIPR at 1.0 µM in the […] PRESTO-Tango GPCRome screen
# [10] = target: Parathyroid hormone 2 receptor (Homo sapiens) (UniProt P49190); experiment: RLU of PTH2R at 1.0 µM in the […] PRESTO-Tango GPCRome screen
# [11] = target: Sphingosine 1-phosphate receptor 5 (Homo sapiens) (UniProt Q9H228); experiment: RLU of S1PR5 at 1.0 µM in the […] PRESTO-Tango GPCRome screen
# [12] = target: C-X-C chemokine receptor type 1 (Homo sapiens) (UniProt P25024); experiment: RLU of CXCR1 at 1.0 µM in the […] PRESTO-Tango GPCRome screen
# [13] = target: Probable G-protein coupled receptor 148 (Homo sapiens) (UniProt Q8TDV2); experiment: RLU of GPR148 at 1.0 µM in the […] PRESTO-Tango GPCRome screen
# [14] = target: G-protein coupled receptor 3 (Homo sapiens) (UniProt P46089); experiment: RLU of GPR3 at 1.0 µM in the […] PRESTO-Tango GPCRome screen
# [15] = target: Hydroxycarboxylic acid receptor 1 (Homo sapiens) (UniProt Q9BXC0); experiment: RLU of HCA1 at 1.0 µM in the Aequorin PRESTO-Tango GPCRome screen
# [16] = target: Somatostatin receptor type 2 (Homo sapiens) (UniProt P30874); experiment: RLU of SSTR2 at 1.0 µM in the […] PRESTO-Tango GPCRome screen
# [17] = target: CX3C chemokine receptor 1 (Homo sapiens) (UniProt P49238); experiment: RLU of CX3C1 at 1.0 µM in the […] PRESTO-Tango GPCRome screen
# [18] = target: Atypical chemokine receptor 3 (Homo sapiens) (UniProt P25106); experiment: RLU of CXCR7 at 1.0 µM in the […] PRESTO-Tango GPCRome screen
# [19] = target: Metabotropic glutamate receptor 4 (Homo sapiens) (UniProt Q14833); experiment: RLU of GRM4 at 1.0 µM in the Aequorin PRESTO-Tango GPCRome screen
# [20] = target: B1 bradykinin receptor (Homo sapiens) (UniProt P46663); experiment: RLU of BDKRB1 at 1.0 µM in the […] PRESTO-Tango GPCRome screen
# [21] = target: Gastrin/cholecystokinin type B receptor (Homo sapiens) (UniProt P32239); experiment: RLU of CCKBR at 1.0 µM in the […] PRESTO-Tango GPCRome screen
# [22] = target: 5-hydroxytryptamine receptor 7 (Homo sapiens) (UniProt P34969); experiment: RLU of HTR7 at 1.0 µM in the […] PRESTO-Tango GPCRome screen
# [23] = target: KiSS-1 receptor (Homo sapiens) (UniProt Q969F8); experiment: RLU of KISSPEPTIN at 1.0 µM in the […] PRESTO-Tango GPCRome screen
# [24] = target: C-C chemokine receptor type 5 (Homo sapiens) (UniProt P51681); experiment: RLU of CCR5 at 1.0 µM in the […] PRESTO-Tango GPCRome screen
# [25] = target: Secretin receptor (Homo sapiens) (UniProt P47872); experiment: RLU of SCTR at 1.0 µM in the […] PRESTO-Tango GPCRome screen
# [26] = target: Trace amine-associated receptor 1 (Homo sapiens) (UniProt Q96RJ0); experiment: RLU of TA1 at 1.0 µM in the […] PRESTO-Tango GPCRome screen
# [27] = target: Alpha-2A adrenergic receptor (Homo sapiens) (UniProt P08913); experiment: RLU of ADRA2A at 1.0 µM in the […] PRESTO-Tango GPCRome screen
# [28] = target: G-protein coupled receptor 146 (Homo sapiens) (UniProt Q96CH1); experiment: RLU of GPR146 at 1.0 µM in the […] PRESTO-Tango GPCRome screen
# [29] = target: 5-hydroxytryptamine receptor 2C (Homo sapiens) (UniProt P28335); experiment: RLU of HTR2C at 1.0 µM in the […] PRESTO-Tango GPCRome screen
# [30] = target: Alpha-2B adrenergic receptor (Homo sapiens) (UniProt P18089); experiment: RLU of ADRA2B at 1.0 µM in the […] PRESTO-Tango GPCRome screen
# [31] = target: Melatonin receptor type 1A (Homo sapiens) (UniProt P48039); experiment: RLU of MTNR1A at 1.0 µM in the […] PRESTO-Tango GPCRome screen
# [32] = target: P2Y purinoceptor 13 (Homo sapiens) (UniProt Q9BPV8); experiment: RLU of P2RY13 at 1.0 µM in the […] PRESTO-Tango GPCRome screen
# [33] = target: G-protein coupled receptor 65 (Homo sapiens) (UniProt Q8IYL9); experiment: RLU of GPR65 at 1.0 µM in the […] PRESTO-Tango GPCRome screen
# [34] = target: Adhesion G protein-coupled receptor G3 (Homo sapiens) (UniProt Q86Y34); experiment: RLU of GPR97 at 1.0 µM in the […] PRESTO-Tango GPCRome screen
# [35] = target: Probable G-protein coupled receptor 82 (Homo sapiens) (UniProt Q96P67); experiment: RLU of GPR82 at 1.0 µM in the […] PRESTO-Tango GPCRome screen
# Chain of Urotensin-2 receptor (Homo sapiens) (Q9UKP6 whole entry): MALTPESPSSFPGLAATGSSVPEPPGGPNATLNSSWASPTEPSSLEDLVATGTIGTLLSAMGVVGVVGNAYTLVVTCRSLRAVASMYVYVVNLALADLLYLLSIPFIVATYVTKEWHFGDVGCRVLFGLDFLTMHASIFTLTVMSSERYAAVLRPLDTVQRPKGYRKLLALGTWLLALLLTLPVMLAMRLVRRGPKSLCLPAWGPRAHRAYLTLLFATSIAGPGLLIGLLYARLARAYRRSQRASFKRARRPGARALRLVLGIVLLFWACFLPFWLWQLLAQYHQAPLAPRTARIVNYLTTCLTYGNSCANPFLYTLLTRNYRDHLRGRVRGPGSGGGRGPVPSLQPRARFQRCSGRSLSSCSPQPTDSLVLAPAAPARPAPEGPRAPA
# Chain of Probable G-protein coupled receptor 148 (Homo sapiens) (Q8TDV2 whole entry): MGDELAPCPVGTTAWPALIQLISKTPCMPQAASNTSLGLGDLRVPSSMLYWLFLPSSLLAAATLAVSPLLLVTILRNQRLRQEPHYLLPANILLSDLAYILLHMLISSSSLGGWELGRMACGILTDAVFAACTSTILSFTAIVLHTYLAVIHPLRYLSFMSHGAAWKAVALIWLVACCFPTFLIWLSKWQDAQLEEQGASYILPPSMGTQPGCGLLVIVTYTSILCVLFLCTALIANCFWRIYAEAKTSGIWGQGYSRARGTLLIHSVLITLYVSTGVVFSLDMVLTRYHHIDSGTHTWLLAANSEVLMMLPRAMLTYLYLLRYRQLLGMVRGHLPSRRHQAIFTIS
# Chain of Metabotropic glycine receptor (Homo sapiens) (Q5T848 whole entry): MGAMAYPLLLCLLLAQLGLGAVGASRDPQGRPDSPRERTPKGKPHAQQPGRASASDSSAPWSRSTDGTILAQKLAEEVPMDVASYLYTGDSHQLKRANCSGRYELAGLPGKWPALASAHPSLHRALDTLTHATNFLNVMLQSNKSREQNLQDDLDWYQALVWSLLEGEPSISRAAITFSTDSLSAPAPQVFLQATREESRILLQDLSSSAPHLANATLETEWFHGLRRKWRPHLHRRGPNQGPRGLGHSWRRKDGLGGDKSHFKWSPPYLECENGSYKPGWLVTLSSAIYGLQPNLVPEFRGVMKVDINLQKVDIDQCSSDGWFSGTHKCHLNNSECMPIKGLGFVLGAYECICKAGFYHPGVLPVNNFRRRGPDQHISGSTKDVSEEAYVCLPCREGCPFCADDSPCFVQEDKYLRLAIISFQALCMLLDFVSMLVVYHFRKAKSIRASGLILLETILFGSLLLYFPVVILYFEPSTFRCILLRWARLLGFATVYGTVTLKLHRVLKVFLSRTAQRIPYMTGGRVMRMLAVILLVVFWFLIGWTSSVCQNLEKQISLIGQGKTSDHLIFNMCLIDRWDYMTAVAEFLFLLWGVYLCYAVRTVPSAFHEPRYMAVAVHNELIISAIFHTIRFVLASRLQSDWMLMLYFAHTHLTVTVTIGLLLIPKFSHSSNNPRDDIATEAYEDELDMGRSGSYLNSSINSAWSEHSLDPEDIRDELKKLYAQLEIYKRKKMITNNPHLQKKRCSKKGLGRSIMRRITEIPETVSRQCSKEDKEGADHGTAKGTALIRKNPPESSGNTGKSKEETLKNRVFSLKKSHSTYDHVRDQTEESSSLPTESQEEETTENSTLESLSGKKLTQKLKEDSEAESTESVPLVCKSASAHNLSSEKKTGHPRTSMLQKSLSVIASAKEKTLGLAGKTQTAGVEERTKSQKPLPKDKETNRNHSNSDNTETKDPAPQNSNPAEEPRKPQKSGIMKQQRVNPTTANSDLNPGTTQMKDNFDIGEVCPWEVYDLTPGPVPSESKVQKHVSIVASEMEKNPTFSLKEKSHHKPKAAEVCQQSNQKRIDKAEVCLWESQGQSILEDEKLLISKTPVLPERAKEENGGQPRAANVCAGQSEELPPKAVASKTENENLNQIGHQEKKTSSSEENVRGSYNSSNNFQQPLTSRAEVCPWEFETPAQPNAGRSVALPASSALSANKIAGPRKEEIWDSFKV
# Chain of Atypical chemokine receptor 3 (Homo sapiens) (P25106 whole entry): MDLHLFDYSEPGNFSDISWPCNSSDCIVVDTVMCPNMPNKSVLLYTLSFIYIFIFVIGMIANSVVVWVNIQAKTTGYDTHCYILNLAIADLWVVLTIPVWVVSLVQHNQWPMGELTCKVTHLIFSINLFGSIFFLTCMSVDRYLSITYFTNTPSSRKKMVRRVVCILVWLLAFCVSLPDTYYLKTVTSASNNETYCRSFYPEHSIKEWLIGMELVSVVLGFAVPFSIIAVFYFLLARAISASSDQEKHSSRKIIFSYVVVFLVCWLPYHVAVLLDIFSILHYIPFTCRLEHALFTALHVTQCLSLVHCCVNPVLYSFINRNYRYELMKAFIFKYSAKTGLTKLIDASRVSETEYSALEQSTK
# Chain of C-C chemokine receptor type 5 (Homo sapiens) (P51681 whole entry, looked up): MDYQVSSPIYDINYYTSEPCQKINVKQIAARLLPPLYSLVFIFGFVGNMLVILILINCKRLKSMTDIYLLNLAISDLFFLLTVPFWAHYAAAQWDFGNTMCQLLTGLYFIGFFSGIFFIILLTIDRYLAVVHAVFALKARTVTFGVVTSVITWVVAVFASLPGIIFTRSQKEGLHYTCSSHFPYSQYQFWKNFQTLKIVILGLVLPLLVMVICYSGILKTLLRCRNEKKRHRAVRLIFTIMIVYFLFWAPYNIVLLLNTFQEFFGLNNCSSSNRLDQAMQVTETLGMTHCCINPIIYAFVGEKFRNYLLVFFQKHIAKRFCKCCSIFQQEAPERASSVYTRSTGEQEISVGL
# Chain of Metabotropic glutamate receptor 4 (Homo sapiens) (Q14833 whole entry): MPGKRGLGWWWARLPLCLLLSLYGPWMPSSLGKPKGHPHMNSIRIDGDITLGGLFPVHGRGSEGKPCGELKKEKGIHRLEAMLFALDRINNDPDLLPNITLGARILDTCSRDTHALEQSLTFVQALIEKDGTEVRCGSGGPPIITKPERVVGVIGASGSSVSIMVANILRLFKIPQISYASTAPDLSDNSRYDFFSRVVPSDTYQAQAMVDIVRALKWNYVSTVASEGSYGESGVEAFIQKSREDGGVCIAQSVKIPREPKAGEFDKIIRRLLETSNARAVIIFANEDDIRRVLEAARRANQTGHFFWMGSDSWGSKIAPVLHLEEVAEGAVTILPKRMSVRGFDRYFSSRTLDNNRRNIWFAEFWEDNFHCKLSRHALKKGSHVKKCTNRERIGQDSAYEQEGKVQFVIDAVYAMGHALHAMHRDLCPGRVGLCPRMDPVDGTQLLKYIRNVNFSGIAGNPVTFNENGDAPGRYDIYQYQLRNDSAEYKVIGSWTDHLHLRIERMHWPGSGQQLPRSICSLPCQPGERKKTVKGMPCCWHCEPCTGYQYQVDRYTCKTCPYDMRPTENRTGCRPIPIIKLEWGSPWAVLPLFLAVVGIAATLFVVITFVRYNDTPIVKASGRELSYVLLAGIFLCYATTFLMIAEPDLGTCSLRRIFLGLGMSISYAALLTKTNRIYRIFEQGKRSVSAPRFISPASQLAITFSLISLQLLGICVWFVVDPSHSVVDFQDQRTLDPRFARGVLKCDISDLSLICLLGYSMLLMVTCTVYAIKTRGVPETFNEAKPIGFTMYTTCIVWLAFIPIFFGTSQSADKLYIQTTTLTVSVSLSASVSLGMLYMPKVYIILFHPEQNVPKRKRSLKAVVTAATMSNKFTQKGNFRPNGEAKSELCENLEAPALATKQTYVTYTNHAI
# Chain of Sphingosine 1-phosphate receptor 5 (Homo sapiens) (Q9H228 whole entry): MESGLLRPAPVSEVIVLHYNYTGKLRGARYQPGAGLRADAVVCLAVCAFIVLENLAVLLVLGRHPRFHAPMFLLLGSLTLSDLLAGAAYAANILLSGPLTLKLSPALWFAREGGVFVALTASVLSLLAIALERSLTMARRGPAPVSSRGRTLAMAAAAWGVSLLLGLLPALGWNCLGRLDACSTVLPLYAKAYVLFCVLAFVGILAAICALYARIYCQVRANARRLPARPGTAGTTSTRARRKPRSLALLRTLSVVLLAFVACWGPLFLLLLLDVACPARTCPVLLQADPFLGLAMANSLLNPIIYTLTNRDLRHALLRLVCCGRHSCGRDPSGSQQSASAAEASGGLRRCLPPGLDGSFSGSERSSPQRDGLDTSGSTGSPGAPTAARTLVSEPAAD
# Chain of Melatonin receptor type 1A (Homo sapiens) (P48039 whole entry): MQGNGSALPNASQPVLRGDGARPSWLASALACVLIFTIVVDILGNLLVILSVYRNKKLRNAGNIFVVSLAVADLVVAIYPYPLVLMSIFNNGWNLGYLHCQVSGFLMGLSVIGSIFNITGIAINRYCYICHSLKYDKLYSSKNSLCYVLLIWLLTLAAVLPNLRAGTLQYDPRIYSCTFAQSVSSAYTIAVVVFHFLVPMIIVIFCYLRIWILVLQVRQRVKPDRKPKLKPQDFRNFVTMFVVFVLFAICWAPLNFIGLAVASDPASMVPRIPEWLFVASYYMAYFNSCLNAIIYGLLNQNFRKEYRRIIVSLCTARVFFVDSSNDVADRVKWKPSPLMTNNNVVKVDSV
# Chain of Neuropeptide Y receptor type 2 (Homo sapiens) (P49146 whole entry): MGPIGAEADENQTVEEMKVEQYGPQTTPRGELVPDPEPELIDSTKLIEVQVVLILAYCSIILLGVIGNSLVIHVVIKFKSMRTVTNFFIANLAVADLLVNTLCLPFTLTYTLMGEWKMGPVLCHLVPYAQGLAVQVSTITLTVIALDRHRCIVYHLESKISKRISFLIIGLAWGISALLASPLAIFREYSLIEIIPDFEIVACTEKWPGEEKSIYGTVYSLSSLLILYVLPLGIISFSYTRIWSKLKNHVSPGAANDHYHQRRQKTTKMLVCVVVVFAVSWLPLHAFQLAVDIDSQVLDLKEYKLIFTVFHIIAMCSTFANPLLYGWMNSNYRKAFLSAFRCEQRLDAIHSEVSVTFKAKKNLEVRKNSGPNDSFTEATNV
smiles,measurement,setting,value
CCCCC(=O)N1CC2(C1)CN(c1ccccc1-c1nnn[nH]1)C2,RLU,[1],-160
same,RLU,[2],-9420
same,RLU,[3],154
same,RLU,[4],351
same,RLU,[5],1540
same,RLU,[6],-114
same,RLU,[7],125
same,RLU,[8],559
same,RLU,[9],-1500
same,RLU,[10],-1530
same,RLU,[11],2920
same,RLU,[12],812
same,RLU,[13],3090
same,RLU,[14],-1780
same,RLU,[15],583
same,RLU,[16],-163
same,RLU,[17],-3290
same,RLU,[18],-7340
same,RLU,[19],-82.8
same,RLU,[20],-3310
same,RLU,[21],2720
same,RLU,[22],-1000
same,RLU,[23],2040
same,RLU,[24],2710
same,RLU,[25],-71.4
same,RLU,[26],127
same,RLU,[27],10100
same,RLU,[28],-1510
same,RLU,[29],1050
same,RLU,[30],17900
same,RLU,[31],466
same,RLU,[32],10100
same,RLU,[33],-1350
same,RLU,[34],2050
same,RLU,[35],-8050
